From ChEMBL document CHEMBL5346863, “Discovery of substituted benzyloxy-benzylamine inhibitors of acetyltransferase Eis and their anti-mycobacterial activity” (Eur J Med Chem, 2022)
≈ marks a conversion by molar mass, not a printed value. Calls of active or inactive are those of the source. No cut-off for these calls is given here.

What was measured:
[1] = system: Mycobacterium intracellulare; experiment: Antibacterial activity against Mycobacterium intracellulare ATCC 13950 assessed as bacterial growth inhibition incubated for 2 to 3 weeks by resazurin dye based assay; assay type: functional; details: time 2-3 weeks
[2] = system: Mycobacteroides abscessus; experiment: Antibacterial activity against Mycobacterium abscessus ATCC 19977 assessed as bacterial growth inhibition incubated for 2 to 3 weeks by resazurin dye based assay; assay type: functional; details: time 2-3 weeks
[3] = system: Mycobacterium avium; experiment: Antibacterial activity against Mycobacterium avium ATCC 25291 assessed as bacterial growth inhibition incubated for 2 to 3 weeks by resazurin dye based assay; assay type: functional; details: time 2-3 weeks
[4] = system: Mycobacterium tuberculosis; experiment: Antibacterial activity against Mycobacterium tuberculosis H37Ra assessed as bacterial growth inhibition incubated 2 to 3 weeks by resazurin dye based assay; assay type: functional; details: time 2-3 weeks
[5] = system: Mycolicibacterium smegmatis; experiment: Antibacterial activity against Mycobacterium smegmatis mc2 122 assessed as bacterial growth inhibition incubated for 2 to 3 weeks by resazurin dye based assay; assay type: functional; details: time 2-3 weeks
[6] = system: Mycobacterium tuberculosis; experiment: Antibacterial activity against Mycobacterium tuberculosis mc2 6230 assessed as bacterial growth inhibition incubated 2 to 3 weeks by resazurin dye based assay; assay type: functional; details: time 2-3 weeks
[7] = molecular target: T1, N-acetyltransferase Eis (Mycobacterium tuberculosis (strain ATCC 25618 / H37Rv), UniProt P9WFK7); experiment: Inhibition of wild-type Mycobacterium tuberculosis Eis expressed in Escherichia coli BL21(DE3) cells incubated for 5 mins by Ellman's method
T1 sequence (P9WFK7 whole entry): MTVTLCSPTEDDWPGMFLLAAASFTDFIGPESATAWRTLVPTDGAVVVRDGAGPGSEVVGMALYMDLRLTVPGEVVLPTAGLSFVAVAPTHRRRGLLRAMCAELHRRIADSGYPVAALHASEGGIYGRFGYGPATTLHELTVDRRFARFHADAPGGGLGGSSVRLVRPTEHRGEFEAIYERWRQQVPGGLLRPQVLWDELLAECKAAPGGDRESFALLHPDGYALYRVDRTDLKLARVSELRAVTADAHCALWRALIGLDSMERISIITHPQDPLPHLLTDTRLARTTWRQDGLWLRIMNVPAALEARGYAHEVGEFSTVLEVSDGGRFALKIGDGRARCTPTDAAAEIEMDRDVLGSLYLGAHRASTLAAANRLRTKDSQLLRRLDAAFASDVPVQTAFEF

[8] = system: Mycobacterium parascrofulaceum; experiment: Antibacterial activity against Mycobacterium parascrofulaceum ATCC BAA-614 assessed as bacterial growth inhibition incubated for 2 to 3 weeks by resazurin dye based assay; assay type: functional; details: time 2-3 weeks
[9] = system: J774.1; experiment: Cytotoxicity against mouse J774.1 cells upto 12.5 uM incubated for 24 hrs by resazurin dye based cell viability assay; assay type: toxicity; details: j774.1, 24 h
[10] = system: HEK293; experiment: Cytotoxicity against HEK293 cells upto 12.5 uM incubated for 24 hrs by resazurin dye based cell viability assay; assay type: toxicity; details: human, hek293, 24 h
[11] = system: A549; experiment: Cytotoxicity against human A549 cells upto 12.5 uM incubated for 24 hrs by resazurin dye based cell viability assay; assay type: toxicity; details: a549, 24 h
[12] = system: Mycobacterium tuberculosis; experiment: Antibacterial activity against Mycobacterium tuberculosis H37Rv assessed as MIC of kanamycin A at 100 uM incubated for 24 hrs followed by kanamycin A addition measured after 6 days by alamarblue dye based assay; assay type: functional; details: time 7.0 day
[13] = system: Mycobacterium tuberculosis; experiment: Antibacterial activity against Mycobacterium tuberculosis mc2 6230 assessed as MIC of kanamycin A at 25 uM incubated for 24 hrs followed by kanamycin A addition measured after 6 days by alamarblue dye based assay; assay type: functional; details: mc2 6230, 168 h, time 7 day
[14] = system: Mycobacterium tuberculosis; experiment: Antibacterial activity against Mycobacterium tuberculosis mc2 6230 K204 assessed as MIC of kanamycin A at 25 uM incubated for 24 hrs followed by kanamycin A addition measured after 6 days by alamarblue dye based assay; assay type: functional; details: Mycobacterium tuberculosis, mc2 6230 K204, 168 h, time 7 day, read-out: MIC
[15] = system: Mycobacterium tuberculosis; experiment: Antibacterial activity against Mycobacterium tuberculosis H37Rv assessed as MIC of kanamycin A at 54.8 uM incubated for 24 hrs followed by kanamycin A addition measured after 6 days by alamarblue dye based assay; assay type: functional, organism-based; details: time 7.0 day
[16] = system: Mycobacterium tuberculosis; experiment: Antibacterial activity against Mycobacterium tuberculosis K204 assessed as MIC of kanamycin A at 54.8 uM incubated for 24 hrs followed by kanamycin A addition measured after 6 days by alamarblue dye based assay; assay type: functional, organism-based; details: time 7.0 day

CC(C)c1ccc(COc2ccc(CNCc3ccccc3)cc2)cc1
MIC [1]: 2 µM (≈ 0.691 µg/mL)
MIC [2]: 7.8 µM (≈ 2.69 µg/mL)
MIC [3]: 15.6 µM (≈ 5.39 µg/mL)
MIC [4]: ≤ 0.5 µM
MIC [5]: 3.9 µM (≈ 1.35 µg/mL)
MIC [6]: 0.78 µM (≈ 0.269 µg/mL)
IC50 [7]: 1.4 µM

NCC[C@H](O)C(=O)N[C@@H]1C[C@H](N)[C@@H](O[C@H]2O[C@H](CN)[C@@H](O)[C@H](O)[C@H]2O)[C@H](O)[C@H]1O[C@H]1O[C@H](CO)[C@@H](O)[C@H](N)[C@H]1O [AMIKACIN]
MIC [1]: ≤ 0.25 µM
MIC [2]: 1 µM (≈ 0.586 µg/mL)
MIC [8]: 0.25 µM (≈ 0.146 µg/mL)
MIC [3]: 3.9 µM (≈ 2.28 µg/mL)
MIC [5]: ≤ 0.25 µM

COc1ccc(COc2ccc(CNCc3ccccc3)cc2)cc1
MIC [2]: 31.3 µM (≈ 10.4 µg/mL)
MIC [3]: 31.3 µM (≈ 10.4 µg/mL)
MIC [4]: 3.9 µM (≈ 1.3 µg/mL)
MIC [5]: 62.5 µM (≈ 20.8 µg/mL)
MIC [6]: 12.5 µM (≈ 4.17 µg/mL)
IC50 [7]: 12 µM

c1ccc(COc2ccc(CNCc3cccnc3)cc2)cc1
MIC [1]: 31.3 µM (≈ 9.53 µg/mL)
MIC [2]: > 62.5 µM
MIC [3]: 31.3 µM (≈ 9.53 µg/mL)
MIC [4]: 31.3 µM (≈ 9.53 µg/mL)
MIC [5]: > 62.5 µM
MIC [6]: 100 µM (≈ 30.4 µg/mL)
IC50 [7]: ~40 µM

c1ccc(COc2ccc(CNCc3ccncc3)cc2)cc1
MIC [1]: 62.5 µM (≈ 19 µg/mL)
MIC [2]: > 62.5 µM
MIC [3]: 2 µM (≈ 0.609 µg/mL)
MIC [4]: > 62.5 µM
MIC [5]: > 62.5 µM
MIC [6]: 50 µM (≈ 15.2 µg/mL)
IC50 [7]: ~40 µM

Clc1ccc(COc2ccccc2CNCc2ccccc2)cc1
Activity [9]: Non-Toxic
MIC [1]: 31.3 µM (≈ 10.6 µg/mL)
Activity [10]: Non-Toxic
Activity [11]: Non-Toxic
MIC [8]: 31.3 µM (≈ 10.6 µg/mL)
MIC [3]: > 62.5 µM
Activity [12]: Active
MIC [4]: 31.3 µM (≈ 10.6 µg/mL)
MIC [5]: 31.3 µM (≈ 10.6 µg/mL)
MIC [6]: 50 µM (≈ 16.9 µg/mL)
IC50 [7]: 5.4 µM

Brc1cccc(COc2ccc(CNCc3ccccc3)cc2)c1
MIC [1]: 3.9 µM (≈ 1.49 µg/mL)
MIC [2]: 31.3 µM (≈ 12 µg/mL)
MIC [8]: 2 µM (≈ 0.765 µg/mL)
MIC [3]: 31.3 µM (≈ 12 µg/mL)
MIC [13]: < 1.25 µM
MIC [4]: 3.9 µM (≈ 1.49 µg/mL)
MIC [5]: 2 µM (≈ 0.765 µg/mL)
MIC [6]: 50 µM (≈ 19.1 µg/mL)
MIC [14]: ≤ 1.25 µM
IC50 [7]: 2.4 µM

Fc1ccc(COc2cccc(CNCc3ccncc3)c2)cc1
MIC [1]: > 62.5 µM
MIC [2]: > 62.5 µM
MIC [8]: > 62.5 µM
MIC [3]: > 62.5 µM
Activity [12]: Active
MIC [4]: 31.3 µM (≈ 10.1 µg/mL)
MIC [5]: > 62.5 µM
MIC [6]: 100 µM (≈ 32.2 µg/mL)
IC50 [7]: 14 µM

c1ccc(CNCc2ccccc2OCc2ccccc2)cc1
MIC [1]: 31.3 µM (≈ 9.5 µg/mL)
MIC [8]: 15.6 µM (≈ 4.73 µg/mL)
MIC [3]: > 62.5 µM
Activity [12]: Active
MIC [5]: > 62.5 µM
MIC [6]: 100 µM (≈ 30.3 µg/mL)
IC50 [7]: ~15 µM

Clc1ccc(COc2cccc(CNCc3ccncc3)c2)cc1
Activity [15]: Active
MIC [1]: 31.3 µM (≈ 10.6 µg/mL)
MIC [2]: > 62.5 µM
Activity [16]: Active
MIC [3]: > 62.5 µM
Activity [12]: Active
MIC [4]: 31.3 µM (≈ 10.6 µg/mL)
MIC [6]: 50 µM (≈ 16.9 µg/mL)
IC50 [7]: ~20 µM

Fc1ccc(COc2ccccc2CNCc2ccccc2)cc1
Activity [9]: Non-Toxic
MIC [1]: 31.3 µM (≈ 10.1 µg/mL)
MIC [2]: 31.3 µM (≈ 10.1 µg/mL)
Activity [10]: Non-Toxic
Activity [11]: Non-Toxic
MIC [8]: 31.3 µM (≈ 10.1 µg/mL)
MIC [3]: > 62.5 µM
Activity [12]: Active
MIC [4]: 31.3 µM (≈ 10.1 µg/mL)
MIC [5]: > 62.5 µM
MIC [6]: 50 µM (≈ 16.1 µg/mL)
IC50 [7]: ~8 µM

Brc1ccc(COc2ccc(CNCc3ccccc3)cc2)cc1
MIC [1]: 15.6 µM (≈ 5.96 µg/mL)
MIC [2]: 15.6 µM (≈ 5.96 µg/mL)
MIC [8]: 7.8 µM (≈ 2.98 µg/mL)
MIC [3]: 62.5 µM (≈ 23.9 µg/mL)
MIC [4]: 7.8 µM (≈ 2.98 µg/mL)
MIC [5]: 7.8 µM (≈ 2.98 µg/mL)
MIC [6]: 12.5 µM (≈ 4.78 µg/mL)
IC50 [7]: 1.5 µM

NNC(=O)c1ccncc1 [ISONIAZID]
MIC [1]: 3.9 µM (≈ 0.535 µg/mL)
MIC [2]: > 31.3 µM
MIC [8]: 7.8 µM (≈ 1.07 µg/mL)
MIC [3]: > 31.3 µM
MIC [5]: 3.9 µM (≈ 0.535 µg/mL)

Cc1ccc(COc2ccc(CNCc3ccccc3)cc2)cc1
MIC [1]: 15.6 µM (≈ 4.95 µg/mL)
MIC [2]: 31.3 µM (≈ 9.94 µg/mL)
MIC [8]: 15.6 µM (≈ 4.95 µg/mL)
MIC [3]: 15.6 µM (≈ 4.95 µg/mL)
MIC [4]: 15.6 µM (≈ 4.95 µg/mL)
MIC [5]: 1 µM (≈ 0.317 µg/mL)
MIC [6]: 1.56 µM (≈ 0.495 µg/mL)
IC50 [7]: > 200 µM
